Measurements taken from patent EP0959065B1, “Pyrethroid compound and composition for controlling pest containing the same” (priority 1998, dated 1999).

Assays:
female adult houseflies = experiment: Insecticidal activity against housefly, topical application of acetone dilutions on the nota; type: in vivo; details: Musca domestica, 0.5 µl acetone dilution per insect on the nota, mortality after 24 hours
Method: The present compound was diluted with acetone to concentrations of 100, 50, 25, 12.5 and 6.25 ppm. Each of reference compounds A and B was also diluted with acetone to concentrations of 400, 200, 100, 50 and 25 ppm. Each of the dilutions thus prepared was applied on the nota of female adult houseflies in a volume of 0.5 µl per insect. The insects were given water and diet. After 24 hours, the dead and alive were counted for mortality. From the mortality, LD50 (mg/kg) value was determined.

[1] = Calculation of safety factor (rat LD50 / housefly LD50); details: Toxicity to rat (LD50 value) / Insecticidal activity against housefly (LD50 value)
Method: The safety factor was calculated from the insecticidal activity against housefly and the toxicity to rat according to the following equation. […] Safety factor = Toxicity to rat (LD50 value)] / [Insecticidal activity against housefly (LD50 value)] [formula]

[2] = test system: houseflies (Musca domestica); experiment: Mosquito coil fumigation test in glass chamber (knock-down and lethal activity); type: in vivo; set-up: key to Knocking-down activity: Excellent: All the insects were knocked down or dead (the total in the two replications); Good: 1 to 2 insects were not knocked down or dead (ditto); Mediocre: 3 to 4 insects were not knocked down or dead (ditto); Bad: 5 or more insects were not knocked down or dead (ditto); details: two replications; for Knocking-down activity: 0.3 g coil burnt 30 seconds in 0.34 m^3 chamber, knocked-down counted at ten minutes, 10 adult houseflies; for Lethal activity: insects recovered at 25 minutes, dead and alive counted in 24 hours
Text: A base material for mosquito coil (obtained by stirring a 4:3:3 mixture of Tabu powder, Pyrethrum marc and wood powder, adding water thereto, thoroughly kneading the resulting mixture, and molding and drying the kneaded mixture) was uniformly impregnated with a solution of the present compound in acetone so that the material contains a predetermined amount of the compound. The resultant base material was air-dried to obtain a mosquito coil.
Ten adult houseflies (Musca domestica) (male/ female = 5/5) were released in a glass chamber (70cm cube, capacity: 0.34 m^3). 0.3 Gram of a mosquito coil containing the present compound prepared according to the procedure described above was set on a holder in the center of the bottom of the chamber, ignited at one end thereof, and taken out of the chamber after 30 seconds of combustion. The knocked-down houseflies were counted in ten minutes after the setting of the coil. In 25 minutes after the setting of the coil, the test insects were recovered into a cup for recovery and given water and diet. The dead and alive were counted in 24 hours. Two replications of the test were carried out. The same test procedure was repeated for 4-methyl-2,3,5,6-tetrafluorobenzyl (1R)-cis-3-(2,2-dichlorovinyl)-2,2-dimethylcyclopropanecarboxylate (hereinafter referred to as reference compound A) and for a mixture of 50% by weight of 4-methyl-2,3,5,6-tetrafluorobenzyl (1RS)-cis-3-(2,2-dichlorovinyl)-2,2-dimethylcyclopropanecarboxylate and 50% by weight of 4-methyl-2,3,5,6-tetrafluorobenzyl (1RS)-trans-3-(2,2-dichlorovinyl)-2,2-dimethylcyclopropanecarboxylate (this mixture is hereinafter referred to as reference compound B). […] In the table, the knocking-down activity and the lethal activity are indicated according to the following criterion: • Excellent: All the insects were knocked down or dead (the total in the two replications). • Good: 1 to 2 insects were not knocked down or dead (ditto). • Mediocre: 3 to 4 insects were not knocked down or dead (ditto). • Bad: 5 or more insects were not knocked down or dead (ditto).

[3] = Toxicity to rat, administration of corn oil dilutions; details: in vivo, male rats, dilution in corn oil, 10 ml/kg, mortality after 7 days
Method: Each of the present compound and reference compounds A and B was diluted with corn oil to predetermined concentrations. Each of the dilutions thus prepared was administered to male rats in an amount of 10 ml/kg. The rats were given water and diet. After 7 days, the dead and alive were counted for mortality. From the mortality, LD50 (mg/kg) value was determined.

Compound	LD50 (female adult houseflies)	Safety factor [1]	Knocking-down activity ([2]; concentration 0.5 %W/W)	Lethal activity ([2]; concentration 0.5 %W/W)	LD50 at 7 days [3]	Knocking-down activity ([2]; concentration 1.0 %W/W)	Lethal activity ([2]; concentration 1.0 %W/W)
Cc1c(F)c(F)c(COC(=O)[C@@H]2[C@@H](C=C(Cl)Cl)C2(C)C)c(F)c1F [Present compound, 4-methyl-2,3,5,6-tetrafluorobenzyl (1R)-trans-3-(2,2-dichlorovinyl)-2,2-dimethylcyclopropanecarboxylate]	0.93 mg/kg	320	Excellent	Good (1 to 2 insects were not knocked down or dead (ditto))	300 mg/kg	–	–
Cc1c(F)c(F)c(COC(=O)[C@@H]2[C@H](C=C(Cl)Cl)C2(C)C)c(F)c1F [Reference compound A, 4-methyl-2,3,5,6-tetrafluorobenzyl (1R)-cis-3-(2,2-dichlorovinyl)-2,2-dimethylcyclopropanecarboxylate]	2.8 mg/kg	<36	Bad (5 or more insects were not knocked down or dead (ditto))	Bad (5 or more insects were not knocked down or dead (ditto))	< 100 mg/kg	–	–
mixture of 50% by weight of 4-methyl-2,3,5,6-tetrafluorobenzyl (1RS)-cis-3-(2,2-dichlorovinyl)-2,2-dimethylcyclopropanecarboxylate and 50% by weight of 4-methyl-2,3,5,6-tetrafluorobenzyl (1RS)-trans-3-(2,2-dichlorovinyl)-2,2-dimethylcyclopropanecarboxylate [Reference compound B]	–	<35	Bad (5 or more insects were not knocked down or dead (ditto))	Bad (5 or more insects were not knocked down or dead (ditto))	–	Mediocre (3 to 4 insects were not knocked down or dead (ditto))	Bad (5 or more insects were not knocked down or dead (ditto))
